Assay results taken from patent publication US12146004B2, “Polymyxin compounds and uses thereof” (priority 2014, dated 2024).
In brackets after ≈: the same amount, converted by molar mass. Bridge positions count the residues as written; N and C are the ends. Square brackets hold non-standard residues; d marks the D form. Peptide text beside a SMILES is read from it. * marks the point of attachment. ξ: configuration not given here. dBip = N[C@H](Cc1ccc(-c2ccccc2)cc1)C(=O)O; dPhe(4-Br) = N[C@H](Cc1ccc(Br)cc1)C(=O)O; Gly(octyl) = CCCCCCCC[C@H](N)C(=O)O; Octanoyl(6-Me) = CCC(C)CCCCC(=O)*; Thr(3ξ) = CC(O)[C@H](N)C(=O)O; X1 = CC(C)CN1CCNC[C@H]1C(=O)*; Octanoyl = CCCCCCCC(=O)*; Dab = NCC[C@H](N)C(=O)O; Dap = NC[C@H](N)C(=O)O; X18 = CCCCC(CCN)C(=O)*

Legend:
Type in all cases: cell-based
[1] = system: Escherichia coli, Pseudomonas aeruginosa, Klebsiella pneumoniae and Acinetobacter baumannii; assay: Susceptibility testing, comparisons in words across the Gram negative pathogens; settings: for activity against polymyxin resistant strains: versus comparator compound
Method: To evaluate the potency and spectrum of the compounds, susceptibility testing was performed against up to nine strains of each of the Gram negative pathogens, Escherichia coli, Pseudomonas aeruginosa, Klebsiella pneumoniae and Acinetobacter baumannii.

Klebsiella pneumoniae = system: Klebsiella pneumoniae
In short: (§1)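 Strain panels of up to nine per species, with resistant and Polymyxin-tolerant strains included, were used for susceptibility testing; read-out was MIC (μg/mL).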

Acinetobacter baumannii = system: Acinetobacter baumannii
In short: as §1

Escherichia coli = system: Escherichia coli
In short: as §1

Pseudomonas aeruginosa = system: Pseudomonas aeruginosa
In short: as §1

HK-2 cells = system: HK-2 cells
From the text: Values are reported relative to Polymyxin B.

| Compound | MIC K. pneumoniae 065 (Klebsiella pneumoniae) | MIC A. baumanii ATCC BAA-747 (Acinetobacter baumannii) | MIC A. baumanii NCTC 13424 (Acinetobacter baumannii) | MIC E. coli 058 (Escherichia coli) | MIC E. coli ATCC 25922 (Escherichia coli) | MIC P. aeruginosa ATCC 27853 (Pseudomonas aeruginosa) | MIC P. aeruginosa CCUG 59347 (Pseudomonas aeruginosa) | activity against polymyxin resistant strains [1] | HK-2 IC50 (HK-2 cells) | MIC K. pneumoniae 063 (Klebsiella pneumoniae) | MIC K. pneumoniae 064 (Klebsiella pneumoniae) | MIC K. pneumoniae 066 (Klebsiella pneumoniae) | MIC K. pneumoniae 067 (Klebsiella pneumoniae) | MIC K. pneumoniae ATCC 4352 (Klebsiella pneumoniae) | MIC A. baumanii 053 (Acinetobacter baumannii) | MIC A. baumanii 056 (Acinetobacter baumannii) | MIC E. coli 059 (Escherichia coli) | MIC E. coli 061 (Escherichia coli) | MIC P. aeruginosa 068 (Pseudomonas aeruginosa) | MIC P. aeruginosa 070 (Pseudomonas aeruginosa) | further results |
| --- | --- | --- | --- | --- | --- | --- | --- | --- | --- | --- | --- | --- | --- | --- | --- | --- | --- | --- | --- | --- | --- |
| CCCCCCCC[C@@H]1NC(=O)[C@@H](Cc2ccccc2)NC(=O)[C@H](CCN)NC(=O)[C@@H](NC(=O)[C@H](CCN)NC(=O)[C@@H](NC(=O)[C@H](CCN)NC(=O)CCCCCCC)[C@@H](C)O)CCNC(=O)[C@H]([C@@H](C)O)NC(=O)[C@H](CCN)NC(=O)[C@H](CCN)NC1=O [Example C7, octanoyl-Dab-Thr-Dab-Cy[Dab-Dab-D-Phe-L-OctGly-Dab-Dab-Thr], reference compound] (Octanoyl-[Dab]T[Dab][Dab][Dab][dF][Gly(octyl)][Dab][Dab]T; lactam 4-C) | 2 µg/mL (≈ 1.61 µM) | 1 µg/mL (≈ 0.803 µM) | 1 µg/mL (≈ 0.803 µM) | 2 µg/mL (≈ 1.61 µM) | 1 µg/mL (≈ 0.803 µM) | 0.5 µg/mL (≈ 0.401 µM) | 2 µg/mL (≈ 1.61 µM) |  |  |  |  |  |  |  |  |  |  |  |  |  | activity against polymyxin-susceptible strains ([1]; versus compounds in a more negative A Log P range): less active against polymyxin-susceptible strains; MIC K. pneumoniae ATCC 13882 (Klebsiella pneumoniae): 1 µg/mL (≈ 0.803 µM); MIC K. pneumoniae CA062 (Klebsiella pneumoniae): 16 µg/mL (≈ 12.8 µM); MIC K. pneumoniae CA063 (Klebsiella pneumoniae): 8 µg/mL (≈ 6.42 µM); MIC K. pneumoniae CA064 (Klebsiella pneumoniae): 4 µg/mL (≈ 3.21 µM); MIC K. pneumoniae CA066 (Klebsiella pneumoniae): 2 µg/mL (≈ 1.61 µM); MIC K. pneumoniae CA067 (Klebsiella pneumoniae): 64 µg/mL (≈ 51.4 µM); MIC K. pneumoniae N655 (Klebsiella pneumoniae): 8 µg/mL (≈ 6.42 µM); MIC A. baumannii CA053 (Acinetobacter baumannii): 4 µg/mL (≈ 3.21 µM); MIC A. baumannii CA056 (Acinetobacter baumannii): 4 µg/mL (≈ 3.21 µM); MIC E. coli CA059 (Escherichia coli): 2 µg/mL (≈ 1.61 µM); MIC E. coli CA060 (Escherichia coli): 2 µg/mL (≈ 1.61 µM); MIC E. coli CA061 (Escherichia coli): 4 µg/mL (≈ 3.21 µM); MIC P. aeruginosa CA068 (Pseudomonas aeruginosa): 4 µg/mL (≈ 3.21 µM); MIC P. aeruginosa CA070 (Pseudomonas aeruginosa): 2 µg/mL (≈ 1.61 µM) |
| CC(C)C[C@@H]1NC(=O)[C@@H](Cc2ccc(-c3ccccc3)cc2)NC(=O)[C@H](CCN)NC(=O)[C@@H](NC(=O)[C@H](CN)NC(=O)[C@@H](NC(=O)[C@@H]2CNCCN2CC(C)C)C(C)O)CCNC(=O)[C@H]([C@@H](C)O)NC(=O)[C@H](CCN)NC(=O)[C@H](CCN)NC1=O (stereo partly drawn) [Example 5] (X1-[Thr(3ξ)][Dap][Dab][Dab][dBip]L[Dab][Dab]T; lactam 3-C) | 0.5 µg/mL (≈ 0.419 µM) | 0.125 µg/mL (≈ 0.105 µM) |  | 1 µg/mL (≈ 0.838 µM) | 0.06 µg/mL (≈ 0.0503 µM) | 0.5 µg/mL (≈ 0.419 µM) |  | significantly improves of activity against resistant strains | 36 µg/mL | 16 µg/mL (≈ 13.4 µM) | 4 µg/mL (≈ 3.35 µM) | 8 µg/mL (≈ 6.7 µM) | 32 µg/mL (≈ 26.8 µM) | 0.25 µg/mL (≈ 0.209 µM) | 32 µg/mL (≈ 26.8 µM) | 4 µg/mL (≈ 3.35 µM) | 1 µg/mL (≈ 0.838 µM) | 8 µg/mL (≈ 6.7 µM) | 4 µg/mL (≈ 3.35 µM) | 8 µg/mL (≈ 6.7 µM) | MIC E. coli 060 (Escherichia coli): 2 µg/mL (≈ 1.68 µM) |
| CCC(C)CCCCC(=O)N[C@@H](CCN)C(=O)N[C@H](C(=O)N[C@@H](CCN)C(=O)N[C@H]1CCNC(=O)[C@H]([C@@H](C)O)NC(=O)[C@H](CCN)NC(=O)[C@H](CCN)NC(=O)[C@H](CC(C)C)NC(=O)[C@@H](Cc2ccc(Br)cc2)NC(=O)[C@H](CCN)NC1=O)C(C)O (stereo partly drawn) [Example 2, Polymyxin B[D-(4-bromoPhe)]-6]] ({Octanoyl(6-Me)}-[Dab][Thr(3ξ)][Dab][Dab][Dab][dPhe(4-Br)]L[Dab][Dab]T; lactam 4-C) | 0.5 µg/mL (≈ 0.39 µM) | 2 µg/mL (≈ 1.56 µM) |  | 2 µg/mL (≈ 1.56 µM) | 2 µg/mL (≈ 1.56 µM) | 1 µg/mL (≈ 0.78 µM) |  | enhances activity against polymyxin resistant strains |  | 16 µg/mL (≈ 12.5 µM) | 2 µg/mL (≈ 1.56 µM) | 4 µg/mL (≈ 3.12 µM) | 16 µg/mL (≈ 12.5 µM) | 1 µg/mL (≈ 0.78 µM) | 16 µg/mL (≈ 12.5 µM) | 4 µg/mL (≈ 3.12 µM) | 1 µg/mL (≈ 0.78 µM) | 4 µg/mL (≈ 3.12 µM) | 2 µg/mL (≈ 1.56 µM) | 4 µg/mL (≈ 3.12 µM) | MIC K. pneumoniae 062 (Klebsiella pneumoniae): 8 µg/mL (≈ 6.24 µM); MIC E. coli 060 (Escherichia coli): 2 µg/mL (≈ 1.56 µM) |
| CCCCC(CCN)C(=O)N[C@H](C(=O)N[C@@H](CCN)C(=O)N[C@H]1CCNC(=O)[C@H]([C@@H](C)O)NC(=O)[C@H](CCN)NC(=O)[C@H](CCN)NC(=O)[C@H](CC(C)C)NC(=O)[C@@H](Cc2ccccc2)NC(=O)[C@H](CCN)NC1=O)C(C)O (stereo partly drawn) [Example C4, 2-(2-Aminoethyl) hexanoyl polymyxin B nonapeptide, reference compound] (X18-[Thr(3ξ)][Dab][Dab][Dab][dF]L[Dab][Dab]T; lactam 3-C) | >64 µg/mL | 1 µg/mL (≈ 0.905 µM) | 0.5 µg/mL (≈ 0.453 µM) | >64 µg/mL | 1.0 µg/mL (≈ 0.905 µM) | 1 µg/mL (≈ 0.905 µM) | 2 µg/mL (≈ 1.81 µM) |  |  |  |  |  |  | 0.25 µg/mL (≈ 0.226 µM) |  |  |  |  |  |  | activity [1]: only moderate activity; MIC K. pneumoniae ATCC 13882 (Klebsiella pneumoniae): 1 µg/mL (≈ 0.905 µM) |
| CC(C)CC1CNCC(C(=O)N[C@H](C(=O)N[C@@H](CN)C(=O)N[C@H]2CCNC(=O)[C@H]([C@@H](C)O)NC(=O)[C@H](CCN)NC(=O)[C@H](CCN)NC(=O)[C@H](CC(C)C)NC(=O)[C@@H](Cc3ccc(-c4ccccc4)cc3)NC(=O)[C@H](CCN)NC2=O)C(C)O)C1 (single isomer, unassigned; isomer 2) [Example 4, (trans-5-(isobutyl-piperidine)-3-carbonyl L-Thr-L-Dap-polymyxin [D-(4-phenyl)Phe]-6]heptapeptide. Isomer 2] | 1 µg/mL (≈ 0.839 µM) | 0.5 µg/mL (≈ 0.419 µM) |  | 0.5 µg/mL (≈ 0.419 µM) | 0.5 µg/mL (≈ 0.419 µM) | 1 µg/mL (≈ 0.839 µM) |  | significantly improves of activity against resistant strains | 32 µg/mL | 4 µg/mL (≈ 3.35 µM) | 2 µg/mL (≈ 1.68 µM) | 1 µg/mL (≈ 0.839 µM) | 8 µg/mL (≈ 6.71 µM) | 0.5 µg/mL (≈ 0.419 µM) | 2 µg/mL (≈ 1.68 µM) | 0.5 µg/mL (≈ 0.419 µM) | 0.5 µg/mL (≈ 0.419 µM) | 2 µg/mL (≈ 1.68 µM) | 1 µg/mL (≈ 0.839 µM) | 2 µg/mL (≈ 1.68 µM) | MIC E. coli 060 (Escherichia coli): 0.5 µg/mL (≈ 0.419 µM) |
| CC(C)Cc1ccc(C[C@H]2NC(=O)[C@H](CCN)NC(=O)[C@@H](NC(=O)[C@H](CN)NC(=O)[C@@H](NC(=O)C3CNCC(CC(C)C)C3)C(C)O)CCNC(=O)[C@H]([C@@H](C)O)NC(=O)[C@H](CCN)NC(=O)[C@H](CCN)NC(=O)[C@H](CC(C)C)NC2=O)cc1 (single isomer, unassigned; isomer 2) [Example 25, (Ttrans-5-(isobutyl-piperidine)-3-carbonyl L-Thr-L-Dap-polymyxin [D-(4-isobutyl Phe)]-6]heptapeptide isomer 2] | 1 µg/mL (≈ 0.853 µM) | 0.5 µg/mL (≈ 0.426 µM) | 0.5 µg/mL (≈ 0.426 µM) | 1 µg/mL (≈ 0.853 µM) | 0.5 µg/mL (≈ 0.426 µM) | 1 µg/mL (≈ 0.853 µM) | 2 µg/mL (≈ 1.71 µM) |  | 20 µg/mL | 2 µg/mL (≈ 1.71 µM) |  |  |  | 0.25 µg/mL (≈ 0.213 µM) |  |  |  | 0.5 µg/mL (≈ 0.426 µM) | 1 µg/mL (≈ 0.853 µM) | 1 µg/mL (≈ 0.853 µM) |  |
